Results from patent US20090149458A1, “PYRROLO[3,2-d]PYRIMIDINE COMPOUNDS AND THEIR USE AS PI3 KINASE AND mTOR KINASE INHIBITORS” (Wyeth, priority 2007, published 2009).

Columns and labels:
[1] = test system: acute lymphoblastic leukemia xenograft; conditions: NOS/SCID xenograft mouse model of acute lymphoblastic leukemia; Teachey et al, Blood 2006; cited from earlier work
[2] = biological target: T1, human TOR (Homo sapiens, UniProt P42345); assay: human TOR kinase assay with purified enzyme, DELFIA format; format: biochemical; conditions: FLAG-TOR, 100 μM ATP, His6-S6K substrate;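 also: 2 h kinase reaction at room temperature, phosphorylation of S6K at T389 detected with a europium-labelled antibody after plate capture, DMSO vehicle as control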
T1 construct: FLAG

[3] = biological target: PI3 Kinase α (Homo sapiens, UniProt P42336); assay: PI3K fluorescence polarization assay (PI3 Kinase α); format: biochemical; conditions: 20 uM PIP2, 25 uM ATP;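 also: enzyme reaction with inhibitor or DMSO control, 30–60 min at room temperature, stopped by EDTA, then TAMRA detector with GST-GRP fluorescence polarization read after 90–110 min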
[4] = biological target: PI3 Kinase γ (Homo sapiens, UniProt P48736); assay: PI3K fluorescence polarization assay (PI3 Kinase γ); format: biochemical; conditions: 20 uM PIP2, 25 uM ATP
Experimental: Buffers: Reaction Buffer: 20 mM HEPES pH7.5, 2 mM MgCl2, 0.05% CHAPS, and 0.01% bME (added fresh); STOP/detection Buffer: 100 mM HEPES pH7.5, 4 mM EDTA, 0.05% CHAPS. STOCKS: ATP 20 mM in H2O; PIP2 (diC8, Echelon cat# P-4508) 1 mM in H2O MW=856.5; GST-murine GRP 1.5 mg/ml in 17% glycerol; Red detector probe-Echelon (TAMRA) 2.5 uM. Plate: Nunc 384 well black polypropylene fluor. Plate.
Assay: The assay is run by putting 9.5 ul of freshly diluted enzyme (in “reaction buffer”) per well, then 0.5 ul of diluted drug or DMSO mixing. Then 10 ul of substrate is added to start the reaction. The mixture is incubated 30-60 minutes, room temp, then stopped with 20 ul of stop/detector mix. The substrate solution, is 40 μM PIP2 and 50 uM ATP in reaction buffer. Addition of 10 ul of substrate to each well starts the reaction. This is 20 uM PIP2, 25 uM ATP final in reaction.
Stop/detector mix: 10 nM TAMRA detector, 40 nM GST-GRP in STOP/detection buffer. To stop reaction: add 20 ul Stop/detector mix per well and mix well. Wait 90-110 minutes before reading plate. Plates are read on Perkin-Elmer Envision plate readers with filters for Tamra. Keep Red probe solutions dark. This procedure is adapted from Echelon Biosciences Inc procedure for their PI3-Kinase fluorescence polarization activity Assay kit Product number K-1100.

Chain of PI3 Kinase γ (P48736 whole entry): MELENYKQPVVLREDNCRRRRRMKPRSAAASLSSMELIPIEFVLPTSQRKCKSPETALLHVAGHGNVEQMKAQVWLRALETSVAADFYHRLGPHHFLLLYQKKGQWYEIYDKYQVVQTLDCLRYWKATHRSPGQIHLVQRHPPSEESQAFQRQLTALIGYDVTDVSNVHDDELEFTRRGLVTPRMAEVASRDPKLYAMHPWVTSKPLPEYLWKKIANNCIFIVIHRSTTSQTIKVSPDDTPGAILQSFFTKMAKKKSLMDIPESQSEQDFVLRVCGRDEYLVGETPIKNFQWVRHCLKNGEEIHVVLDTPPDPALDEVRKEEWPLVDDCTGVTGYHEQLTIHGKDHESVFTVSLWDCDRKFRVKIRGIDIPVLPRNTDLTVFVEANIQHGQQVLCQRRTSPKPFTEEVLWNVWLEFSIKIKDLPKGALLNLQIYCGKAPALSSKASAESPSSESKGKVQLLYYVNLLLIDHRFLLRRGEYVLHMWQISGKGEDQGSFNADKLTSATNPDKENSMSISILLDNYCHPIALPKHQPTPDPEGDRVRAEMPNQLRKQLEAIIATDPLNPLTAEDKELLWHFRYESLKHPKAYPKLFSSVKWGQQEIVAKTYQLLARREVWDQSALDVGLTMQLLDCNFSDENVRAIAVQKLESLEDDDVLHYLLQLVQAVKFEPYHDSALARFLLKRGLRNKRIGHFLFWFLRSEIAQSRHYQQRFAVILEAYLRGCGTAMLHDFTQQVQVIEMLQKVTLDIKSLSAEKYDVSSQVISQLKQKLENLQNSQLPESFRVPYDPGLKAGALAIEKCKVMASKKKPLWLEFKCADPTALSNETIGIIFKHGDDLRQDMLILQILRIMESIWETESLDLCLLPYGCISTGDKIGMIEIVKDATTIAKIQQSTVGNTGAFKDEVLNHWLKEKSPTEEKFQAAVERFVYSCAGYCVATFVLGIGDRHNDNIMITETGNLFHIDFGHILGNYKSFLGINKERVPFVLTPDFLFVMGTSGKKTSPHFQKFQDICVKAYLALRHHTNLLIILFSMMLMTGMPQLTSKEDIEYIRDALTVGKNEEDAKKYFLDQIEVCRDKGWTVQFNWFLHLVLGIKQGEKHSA
Chain of PI3 Kinase α (P42336 whole entry): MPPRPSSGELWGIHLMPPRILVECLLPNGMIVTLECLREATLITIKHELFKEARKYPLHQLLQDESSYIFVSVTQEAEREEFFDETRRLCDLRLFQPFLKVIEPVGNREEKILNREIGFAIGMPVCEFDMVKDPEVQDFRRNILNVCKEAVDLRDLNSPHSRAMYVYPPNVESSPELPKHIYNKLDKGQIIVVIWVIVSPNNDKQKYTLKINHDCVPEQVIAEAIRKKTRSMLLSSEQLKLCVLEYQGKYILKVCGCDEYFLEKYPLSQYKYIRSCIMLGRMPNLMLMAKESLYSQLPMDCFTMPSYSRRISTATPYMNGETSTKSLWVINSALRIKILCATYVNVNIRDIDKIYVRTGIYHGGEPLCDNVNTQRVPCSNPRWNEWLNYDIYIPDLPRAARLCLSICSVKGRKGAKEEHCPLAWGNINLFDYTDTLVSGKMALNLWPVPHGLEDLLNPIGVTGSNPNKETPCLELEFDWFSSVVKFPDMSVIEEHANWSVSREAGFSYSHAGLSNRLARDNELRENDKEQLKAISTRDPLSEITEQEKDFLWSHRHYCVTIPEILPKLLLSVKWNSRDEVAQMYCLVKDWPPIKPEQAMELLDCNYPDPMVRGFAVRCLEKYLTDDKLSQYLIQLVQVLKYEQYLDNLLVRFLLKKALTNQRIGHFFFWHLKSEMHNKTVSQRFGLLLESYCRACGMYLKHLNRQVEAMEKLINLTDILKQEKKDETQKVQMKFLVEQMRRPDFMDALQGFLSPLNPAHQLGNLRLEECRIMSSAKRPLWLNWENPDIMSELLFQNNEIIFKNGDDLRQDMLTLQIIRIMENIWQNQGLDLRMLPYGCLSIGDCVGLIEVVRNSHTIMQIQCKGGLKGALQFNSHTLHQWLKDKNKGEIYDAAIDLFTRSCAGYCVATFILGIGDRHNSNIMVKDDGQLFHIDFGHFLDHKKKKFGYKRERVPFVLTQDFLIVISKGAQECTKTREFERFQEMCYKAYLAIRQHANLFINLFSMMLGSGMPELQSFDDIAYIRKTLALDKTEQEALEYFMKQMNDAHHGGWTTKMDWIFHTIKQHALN
Chain of PI3 Kinase α (P27986 whole entry partner): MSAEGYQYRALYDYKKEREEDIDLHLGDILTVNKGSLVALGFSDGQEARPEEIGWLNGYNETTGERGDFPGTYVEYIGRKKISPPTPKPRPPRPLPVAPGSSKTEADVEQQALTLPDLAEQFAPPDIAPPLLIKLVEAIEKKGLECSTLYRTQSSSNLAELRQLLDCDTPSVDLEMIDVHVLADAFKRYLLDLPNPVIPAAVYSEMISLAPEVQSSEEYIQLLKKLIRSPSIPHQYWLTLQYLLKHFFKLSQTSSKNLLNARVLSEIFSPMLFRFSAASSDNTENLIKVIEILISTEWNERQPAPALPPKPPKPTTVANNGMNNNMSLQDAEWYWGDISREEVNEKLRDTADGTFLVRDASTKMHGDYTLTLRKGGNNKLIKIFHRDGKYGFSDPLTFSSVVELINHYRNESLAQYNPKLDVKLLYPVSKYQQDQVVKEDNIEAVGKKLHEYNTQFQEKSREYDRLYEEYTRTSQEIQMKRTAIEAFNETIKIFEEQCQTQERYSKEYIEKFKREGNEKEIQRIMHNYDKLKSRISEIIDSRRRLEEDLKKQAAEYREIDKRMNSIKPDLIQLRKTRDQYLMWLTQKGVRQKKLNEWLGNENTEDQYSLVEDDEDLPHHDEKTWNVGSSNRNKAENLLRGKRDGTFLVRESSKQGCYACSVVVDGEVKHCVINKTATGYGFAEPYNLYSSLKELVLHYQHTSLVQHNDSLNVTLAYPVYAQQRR

| Structure (SMILES) | activity in xenograft model [1] | IC50 [2] [nM] | IC50 [3] [nM] | IC50 [4] [nM] |
| --- | --- | --- | --- | --- |
| CO[C@H]1C[C@@H]2CC[C@@H](C)[C@@](O)(O2)C(=O)C(=O)N2CCCC[C@H]2C(=O)O[C@H]([C@H](C)C[C@@H]2CC[C@@H](OC(=O)C(C)(CO)CO)[C@H](OC)C2)CC(=O)[C@H](C)/C=C(\C)[C@@H](O)[C@@H](OC)C(=O)[C@H](C)C[C@H](C)/C=C/C=C/C=C/1C [Torisel] | active |  |  |  |
| O=C(NCCCn1ccnc1)Nc1cccc(-c2nc(N3CCOCC3)c3[nH]ccc3n2)c1 [Example 42, 1-[3-(1H-imidazol-1-yl)propyl]-3-[3-(4-morpholin-4-yl-5H-pyrrolo[3,2-d]pyrimidin-2-yl)phenyl]urea] |  | > 4000 | 8940 | > 10000 |
| Oc1cccc(-c2nc(N3CCOCC3)c3[nH]cc(CN4CCCC4)c3n2)c1 [Example 17, 3-[4-morpholin-4-yl-7-(pyrrolidin-1-ylmethyl)-5H-pyrrolo[3,2-d]pyrimidin-2-yl]phenol] |  | 3250 | 105 | 1560 |
| CC(C)(C)OC(=O)NCCN1CCC(c2c[nH]c3c(N4CCOCC4)nc(-c4cccc(O)c4)nc23)CC1 [Example 36, tert-Butyl (2-{4-[2-(3-hydroxyphenyl)-4-morpholin-4-yl-5H-pyrrolo[3,2-d]pyrimidin-7-yl]piperidin-1-yl}ethyl)carbamate] |  | 580 | 222 | 1730 |
| Oc1cccc(-c2nc(N3CCOCC3)c3[nH]cc(C4CCN(Cc5ccc(F)nc5)CC4)c3n2)c1 [Example 39, 3-(7-{1-[(6-fluoropyridin-3-yl)methyl]piperidin-4-yl}-4-morpholin-4-yl-5H-pyrrolo[3,2-d]pyrimidin-2-yl)phenol] |  | 1260 | 69 | 132 |
| Oc1cccc(-c2nc(N3CCOCC3)c3[nH]cc(C4CCN(Cc5ncc[nH]5)CC4)c3n2)c1 [Example 28, 3-{7-[1-(1H-imidazol-2-ylmethyl)piperidin-4-yl]-4-morpholin-4-yl-5H-pyrrolo[3,2-d]pyrimidin-2-yl}phenol] |  | 2500 | 358 | 983 |
| O=C(NCc1ccco1)Nc1cccc(-c2nc(N3CCOCC3)c3[nH]ccc3n2)c1 [Example 43, 1-(2-furylmethyl)-3-[3-(4-morpholin-4-yl-5H-pyrrolo[3,2-d]pyrimidin-2-yl)phenyl]urea] |  | > 4000 | > 10000 | > 10000 |
| O=C1COCCN1c1nc(-c2cccc(O)c2)nc2cc[nH]c12 [Example 48, 4-[2-(3-hydroxyphenyl)-5H-pyrrolo[3,2-d]pyrimidin-4-yl]morpholin-3-one] |  | 505 | 1180 | 2000 |
| Oc1cccc(-c2nc(N3CCOCC3)c3[nH]cc(C4CCN(C5CCCCC5)CC4)c3n2)c1 [Example 31, 3-[7-(1-cyclohexylpiperidin-4-yl)-4-morpholin-4-yl-5H-pyrrolo[3,2-d]pyrimidin-2-yl]phenol] |  | 370 | 250 | 2490 |
| OCc1cccc(-c2nc(N3CCOCC3)c3[nH]cc(CN4CCN(c5ncccn5)CC4)c3n2)c1 [Example 14] |  | 2200 | 89 | 4510 |
| COC(=O)Cn1ccc2nc(-c3cccc(CO)c3)nc(N3CCOCC3)c21 [Example 46, Methyl {2-[3-(hydroxymethyl)phenyl]-4-morpholin-4-yl-5H-pyrrolo[3,2-d]pyrimidin-5-yl}acetate] |  | > 4000 | 2400 | 2680 |
| Oc1cccc(-c2nc(N3CCOCC3)c3[nH]cc(CN4CCN(c5ncccn5)CC4)c3n2)c1 [Example 20, 3-{4-morpholin-4-yl-7-[(4-pyrimidin-2-ylpiperazin-1-yl)methyl]-5H-pyrrolo[3,2-d]pyrimidin-2-yl}phenol] |  | 2000 | 424 | 6700 |
| CNC(=O)Nc1ccc(-c2nc(N3CCOCC3)c3[nH]ccc3n2)cc1 [Example 6, 1-methyl-3-[4-(4-morpholin-4-yl-5H-pyrrolo[3,2-d]pyrimidin-2-yl)phenyl]urea] |  | 220 | 2670 | 4980 |
| Oc1cccc(-c2nc(N3CCOCC3)c3[nH]cc(CNCc4cccnc4)c3n2)c1 [Example 16, 3-(4-morpholin-4-yl-7-{[(pyridin-3-ylmethyl)amino]methyl}-5H-pyrrolo[3,2-d]pyrimidin-2-yl)phenol] |  | > 4000 | 180 | 3030 |
| CN(C)CCNC(=O)Nc1cccc(-c2nc(N3CCOCC3)c3[nH]ccc3n2)c1 [Example 40, 1-[2-(dimethylamino)ethyl]-3-[3-(4-morpholin-4-yl-5H-pyrrolo[3,2-d]pyrimidin-2-yl)phenyl]urea] |  | > 4000 | 4680 | 9500 |
| O=C(NCc1cccnc1)Nc1cccc(-c2nc(N3CCOCC3)c3[nH]ccc3n2)c1 [Example 44, 1-[3-(4-morpholin-4-yl-5H-pyrrolo[3,2-d]pyrimidin-2-yl)phenyl]-3-(pyridin-3-ylmethyl)urea] |  | > 4000 | > 10000 | > 10000 |
